Patent publication US6337397B1, “Pyrimidine derivatives and their salts, useful for making benzoxazepine derivatives” (Suntory Limited, priority 1995, dated 2002)
Read-outs that look alike come from different tables or passages of the source.

Experiments:
[1] = test system: male Wistar rats; assay: Anticonflict action, NaCl-Lick conflict method; format: in vivo; conditions: Rattus norvegicus, po, 1 hour before the test; number of licks in 5 minutes of 2% saline; rats deprived of water for 48 hours; read-out: Minimum effective dosage
Protocol: The anticonflict action of the compounds of the general formulae (I), (II), and (III) was evaluated in accordance with the NaCl-Lick conflict method of Tanga et al. (Pharmacol., Biochem., Behav., vol. 32, pp. 773-776, 1989). That is, six-week old male Wistar rats in groups of six to 10 were deprived of water for 48 hours and placed in an experimental apparatus placed in a soundproof box (apparatus made of acrylic resin, 20×20×30 cm, provided with a drinking outlet having a diameter of 1 cm at height of 8 cm from the floor, designed to be able to measure the number of drops per unit hour by a drinkometer), and the anticonflict action of the medicament was evaluated using as an indicator the number of drops (number of licks) in 5 minutes from the start of drinking of 2% saline. The tested medicament was orally administered in an amount of 0.2 ml/100 g body weight 1 hour before the start of the test.

[2] = target: T1, serotonin 5-HT1A receptor (Rattus norvegicus, UniProt P19327); assay: Affinity with serotonin receptor, [3H]8-OH-DPAT binding; set-up: species or system male Wistar rats; conditions: for D2/5-HT1A: ratio of IC50 (D2) to IC50 (5-HT1A)
T1 construct: the hippocampuses extracted from male Wistar rats were homogenized; from tissue; host or cells: rat hippocampus membrane homogenate
T1 sequence (P19327 1-422): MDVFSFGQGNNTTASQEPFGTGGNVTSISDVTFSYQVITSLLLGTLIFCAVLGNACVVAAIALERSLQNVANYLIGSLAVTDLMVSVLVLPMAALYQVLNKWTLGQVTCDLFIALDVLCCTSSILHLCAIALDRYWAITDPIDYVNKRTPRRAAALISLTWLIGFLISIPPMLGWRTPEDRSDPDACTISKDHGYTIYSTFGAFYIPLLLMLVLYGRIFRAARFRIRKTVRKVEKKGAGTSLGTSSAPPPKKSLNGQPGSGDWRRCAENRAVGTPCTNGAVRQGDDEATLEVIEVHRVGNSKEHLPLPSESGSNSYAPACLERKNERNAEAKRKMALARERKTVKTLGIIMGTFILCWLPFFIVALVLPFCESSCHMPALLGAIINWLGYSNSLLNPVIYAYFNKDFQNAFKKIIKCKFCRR
Protocol: The affinity of the compounds of the general formulas (I), (II), and (III) with a serotonin receptor was evaluated in accordance with the method of S. T. Peuroutka et al. (J. Neurochem., vol. 47, pp. 529-540, 1986). That is, the hippocampuses extracted from male Wistar rats were homogenized while adding 50 mM tris-phosphate buffer (pH 7.7). The homogenate was centrifuged at […] and 40000×g for 10 minutes. The same buffer was added to the obtained precipitate, then this was homogenized again and was similarly centrifuged to obtain the precipitate. This homogenization-centrifugation operation was repeated two times to obtain a final precipitate to which was then added 10 uM of N-methyl-N-2-propynylbenzylamine (Pargyline), 4 mM of calcium chloride, and 0.1% ascorbic acid contained in a 50 mM tris-phosphate buffer (ph 7.7). This was then homogenized to prepare the serotonin receptor.
For the binding experiment, 0.4 nM of [3H]2-di-n-propylamino-8-hydroxy-1,2,3,4-tetrahydronapthalene (8-DPAT; 8-hydroxy-N,N-dipropyl-2-aminotetetrilin) was used, various concentrations of test samples were added to a system of 0.25 mg/ml of protein or a total of 0.25 ml, and these were incubated at 25° C. for 30 minutes. A Whatman GF/C filter was used to filter each of the reaction solutions, then the filter was washed by 20 mM tris-phosphate buffer (pH 7.7). The serotonin receptor was trapped by the filter and the radio activity of the 8-OH-DAPT bonded to it was measured to find the degree of binding. The 50% inhibiting concentration of binding affinity (IC50) was calculated from the degrees of binding in the various sample concentrations. […] The IC50 values of typical compounds are shown together with the IC50 values with respect to the dopamine D2 receptor.

[3] = target: T2, dopamine D2 receptor (Rattus norvegicus, UniProt P61169); assay: Affinity with dopamine D2 receptor, [3H]Raclopride binding; set-up: species or system male Wistar rats; conditions: 1.0 nM [3H]Raclopride, rat corpus striatum preparation, 25° C., 60 minutes
T2 construct: the corpus striatums excised from male Wistar rats were homogenized; from tissue; host or cells: rat corpus striatum membrane homogenate
T2 sequence (P61169 whole entry): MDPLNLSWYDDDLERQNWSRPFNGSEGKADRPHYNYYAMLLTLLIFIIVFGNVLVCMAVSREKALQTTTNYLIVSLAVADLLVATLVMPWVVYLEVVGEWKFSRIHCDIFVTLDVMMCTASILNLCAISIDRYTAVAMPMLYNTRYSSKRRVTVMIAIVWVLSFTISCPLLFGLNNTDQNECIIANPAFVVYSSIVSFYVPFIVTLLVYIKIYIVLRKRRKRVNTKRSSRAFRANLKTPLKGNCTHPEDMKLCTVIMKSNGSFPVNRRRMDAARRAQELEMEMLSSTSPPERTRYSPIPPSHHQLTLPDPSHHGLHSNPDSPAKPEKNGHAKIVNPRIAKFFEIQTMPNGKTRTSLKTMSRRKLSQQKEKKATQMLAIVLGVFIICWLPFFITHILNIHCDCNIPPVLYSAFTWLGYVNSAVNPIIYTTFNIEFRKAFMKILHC
Protocol: The affinity of the compounds of the general formulas (I), (II), and (III) with a dopamine D2 receptor was evaluated in accordance with the method of Kakohler et al. (Biochem. Pharmacol., vol. 34, pp. 2251-2259, 1985). That is, the corpus striatums excised from male Wistar rats were homogenized with the addition of 120 mM sodium chloride, 5 mM potassium chloride, 2 mM calcium chloride, 1 mM magnesium chloride, and 0.01% ascorbic acid contained in 50 mM tris-phosphate buffer (pH 7.7). The homogenate was centrifuged at […] and 35000×g for 10 minutes. The same buffer was added to the resultant precipitate,then this was homogenized again and was similarly centrifuged to obtain the precipitate. The same buffer was added to this precipitate which was then again homogenized to prepare the dopamine D2 receptor.
For the binding experiment, use was made of 1.0 nM of [3H]3,5-dichloro-N-[(1-ethyl-2-pyrrolidinyl)methyl]-6-hydroxy-o-anisamide (Raclopride), various concentrations of test samples were added to a system of 0.34 mg/ml of protein or a total of 0.25 ml, incubation was performed at 25° C. for 60 minutes, then the radioactivity was measured in the same way as in the Evaluation Example 1 to find the degree of binding.
The 50% inhibiting concentration of binding affinity (IC50) was calculated from the degrees of binding at various concentrations of the added samples. […] The IC50 values of typical compounds are shown together with the IC50 values for the serotonin receptor.

[4] = test system: Wistar male rats; assay: Ischemic brain tissue damage, transient right middle cerebral artery occlusion (MCAO) model; format: in vivo; conditions: Rattus norvegicus, sc, 240 h; s.c., immediately after occlusion; 60 minutes occlusion; brain tissue damage 10 days after restart of blood flow (number of benzodiazepine bindings); read-out: Minimum effective dosage
Protocol: The evaluation of the efficacy on ischemic brain damage of the compounds of the general formulae (I), (II), and (III) was performed using the transient right middle cerebral artery occlusion (MCAO) model of Koizumi et al. (Jap. J. Stroke, vol. 8, pp. 1 to 8, 1986). That is, 10 to 11 week old Wistar male rats were used and the right middle cerebral artery was temporarily obstructed for 60 minutes. 10 days after the restart of the blood flow, the brains were excised and the degree of brain tissue damage of the cerebral cortex and corpus striatum of the obstructed side were evaluated by the damage marker of the number of benzodiazepine bindings. The tested drugs were dissolved in physiological saline and administered subcutaneously at the backs of the rats immediately after the right middle cerebral artery occlusion. As a control, physiological saline of […] body weight was similarly administered.

[5] = 0.4 nM [3H]8-OH-DPAT, rat hippocampus preparation, 25° C., 30 minutes, read-out: IC50 (5-HT1A)

## CCC1=COc2ccccc2C(=O)N1CCCCN1CCN(c2ccccn2)CC1 [Example 36, 4,5-dihydro-3-ethyl-4-(4-(4-(2-pyridyl)piperazin-1-yl)butyl)-1,4-benzoxazepin-5-one]
[1]
  minimal effective dose: 30 mg/kg

## CC1=COc2ccc(F)cc2C(=O)N1CCCCN1CCN(c2cccc(Cl)n2)CC1 [Example 41, 4-(4-(4-(2-chloropyridin-6-yl)piperazin-1-yl)butyl)-4,5-dihydro-7-fluoro-3-methyl-1,4-benzoxazenin-5-one]
[1]
  minimal effective dose: 10 mg/kg
[2]; [5]
  IC50: 1.7 nM
[2]
  D2/5-HT1A: 156
[3]
  IC50: 266 nM

## O=C1c2ccccc2OC=C(Cl)N1CCCCN1CCN(c2ccccn2)CC1 [Example 46, 3-chloro-4,5-dihydro-4-(4-(4-(2-pyridyl)piperazin-1-yl)butyl)-1,4-benzoxazepin-5-one]
[1]
  minimal effective dose: 10 mg/kg
[2]; [5]
  IC50: 0.77 nM
[2]
  D2/5-HT1A: 67
[4]
  minimal effective dose: 0.3 mg/kg
[3]
  IC50: 51 nM

## O=C1c2ccccc2OC=C(Cl)N1CCCCN1CCN(c2ncnc3ccccc23)CC1 [Example 47, 3-chloro-4,5-dihydro-4-(4-(4-(4-quinazolyl)piperazin-1-yl)butyl)-1,4-benzoxazepin-5-one]
[2]; [5]
  IC50: 3.8 nM
[2]
  D2/5-HT1A: 366
[3]
  IC50: 1390 nM

## O=C1c2ccc(Cl)cc2OC=C(Cl)N1CCCCN1CCN(c2ccccn2)CC1 [Example 48, 3,8-dichloro-4,5-dihydro-4-(4-(4-(2-pyridyl)piperazin-1-yl)butyl)-1,4-benzoxazepin-5-one]
[1]
  minimal effective dose: 30 mg/kg
[2]; [5]
  IC50: 1.2 nM
[2]
  D2/5-HT1A: 194
[4]
  minimal effective dose: 1 mg/kg
[3]
  IC50: 233 nM

## Cc1ccc2c(c1)C(=O)N(CCCCN1CCN(c3ncccn3)CC1)C(Cl)=CO2 [Example 49, 3-chloro-4,5-dihydro-7-methyl-4-(4-(4-(2-pyrimidinyl)-piperazin-1-yl)butyl)-1,4-benzoxazepin-5-one]
[2]; [5]
  IC50: 0.88 nM
[2]
  D2/5-HT1A: 460
[3]
  IC50: 405 nM

## CC1=COc2ccccc2C(=O)N1CCCCN1CC=C(c2ncccn2)CC1 [Example 53, 4,5-dihydro-3-methyl-4-(4-(4-(2-pyrimidinyl)-1,2,5,6-tetrahydropyridin-1-yl)butyl)-1,4-benzoxazepin-5-one]
[2]
  IC50: 11 nM
  D2/5-HT1A: 89
[3]
  IC50: 979 nM

## CC1=COc2ccccc2C(=O)N1CCCCN1CCC(c2ncccn2)CC1 [Example 54, 4,5-dihydro-3-methyl-4-(4-(4-(2-pyrimidinyl)piperidin-1-yl)butyl)-1,4-benzoxazepin-5-one]
[1]
  minimal effective dose: 10 mg/kg

## CC1=COc2ccc(F)cc2C(=O)N1CCCCN1CC=C(c2ncccn2)CC1 [Example 55, 4,5-dihydro-7-fluoro-3-methyl-4-(4-(4-(2-pyrimidinyl)-1,2,5,6-tetrahydropyridin-1-yl)butyl)-1,4-benzoxazepin-5-one]
[2]
  IC50: 13 nM
  D2/5-HT1A: 96
[3]
  IC50: 1250 nM

## O=C1c2ccccc2OC=C(Cl)N1CCCCN1CCC(c2ncccn2)CC1 [Example 57, 3-chloro-4,5-dihydro-4-(4-(4-(2-pyrimidinyl)piperidin-1-yl)butyl)-1,4-benzoxazepin-5-one]
[2]; [5]
  IC50: 5.81 nM
[2]
  D2/5-HT1A: 310
[3]
  IC50: 1800 nM

## O=C1c2ccc(Cl)cc2OC=C(Cl)N1CCCCN1CC=C(c2ncccn2)CC1 [Example 59, 3,8-dichloro-4,5-dihydro-4-(4-(4-(2-pyrimidinyl)-1,2,5,6-tetrahydropyridin-1-yl)butyl)-1,4-benzoxazepin-5-one]
[2]
  IC50: 0.65 nM
  D2/5-HT1A: 525
[4]
  minimal effective dose: 1 mg/kg
[3]
  IC50: 341 nM

## O=C1c2ccc(Cl)cc2OC=C(Cl)N1CCCCN1CCC(c2ncccn2)CC1 [Example 60, 3,8-dichloro-4,5-dihydro-4-(4-(4-(2-pyrimidinyl)piperidin-1-yl)butyl)-1,4-benzoxazepin-5-one]
[2]; [5]
  IC50: 1.11 nM
[2]
  D2/5-HT1A: 1153
[4]
  minimal effective dose: 1 mg/kg
[3]
  IC50: 1280 nM

## COc1ccc2c(c1)OC=C(Cl)N(CCCCN1CC=C(c3ncccn3)CC1)C2=O [Example 61, 3-chloro-4,5-dihydro-8-methoxy-4-(4-(4-(2-pyrimdinyl)-1,2,5,6-tetrahydropyridin-1-yl)butyl)-1,4-benzoxazepin-5-one]
[2]
  IC50: 0.68 nM
  D2/5-HT1A: 376
[4]
  minimal effective dose: 1 mg/kg
[3]
  IC50: 256 nM

## O=C1c2ccc(Cl)cc2OC=C(Cl)N1CCCCN1CC=C(c2ccccn2)CC1 [Example 66, 3,8-dichloro-4,5-dihydro-4-(4-(4-(2-pyridyl)-1,2,5,6-tetrahydropyridin-1-yl)butyl)-1,4-benzoxazepin-5-one]
[2]
  IC50: 0.58 nM
  D2/5-HT1A: 221
[3]
  IC50: 128 nM

## O=C1c2ccc(Cl)cc2OC=C(Cl)N1CCCCN1CCC(c2ccccn2)CC1 [Example 67, 3,8-dichloro-4,5-dihydro-4-(4-(4-(2-pyridyl)piperidin-1-yl)butyl)-1,4-benzoxazepin-5-one]
[2]; [5]
  IC50: 0.44 nM
[2]
  D2/5-HT1A: 816
[3]
  IC50: 359 nM

## CC1=COc2ccc(C)cc2C(=O)N1CCCCN1CC=C(c2ccccn2)CC1 [Example 74, 4,5-dihydro-3,7-dimethyl-4-(4-(4-(2-pyridyl)-1,2,5,6-tetrahydropyridin-1-yl)butyl)-1,4-benzoxazepin-5-one]
[2]
  IC50: 4.41 nM
  D2/5-HT1A: 77
[3]
  IC50: 338 nM

## CC1=COc2ccccc2C(=O)N1CCCCN1CC=C(c2ccccn2)CC1 [Example 84, 4,5-dihydro-3-methyl-4-(4-(4-(2-pyridyl)-1,2,5,6-tetrahydropyridin-1-yl)butyl)-1,4-benzoxazepin-5-one]
[4]
  minimal effective dose: 0.3 mg/kg
